Here are results for 4 molecules from patent US9603843B2, “Kits and methods for treating post traumatic stress disorder (PTSD) and hot flashes” (CAD MEDICAL SOLUTIONS, LLC, priority 2013, dated 2017).

The subject of one data set is PTSD. The conditions noted are these: Navy study, ultrasound guidance, not xray guidance; cited from earlier work.
For a further data set, the system named is dogs. To be noted: cited from earlier work.
The test system of a further data set is peripheral nerve blocks. The conditions noted are these: cited from earlier work.
The next data set has as its system patient having PTSD. The conditions noted are these: patient treated with CB without and with clonidine.
The conditions of data set [1]: cited from earlier work.
[2] abbreviates: group 1: left SGB, 0.5% mepivacaine 1 ml.

Read-outs that look alike come from different tables or passages of the source.

Source text for patient having PTSD: The procedure involved a local anesthetic mixed with clonidine delivered by a shot in the patient's neck in a procedure that is similar to an epidural given to women in labor.

On to `CCCN1CCCC[C@H]1C(=O)Nc1c(C)cccc1C` [Ropivacaine, ropivacaine], for which the RCSGI versus placebo entry in the data set with PTSD was “no difference”.

With `Cc1cccc(C)c1NC(=O)C1CCCCN1C` (centres unmarked) [mepivacaine], in the data set on dogs (group 1: 0.5% mepivacaine 1 ml), the “left brachial artery blood flow (BABF) after left SGB” value is “increased significantly” and the “right BABF after left SGB” value is reported as “decreased significantly”. In addition, in the data set on dogs (setting [2]), the “heart rate (HR)” value is listed as “no significant change” and the “mean arterial pressure (MAP)” value is “no significant change”.

Turning to `Clc1cccc(Cl)c1N=C1NCCN1` [clonidine], the “duration of analgesia and anesthesia” value in the data set on peripheral nerve blocks (adjunct to intermediate-acting local anesthetics for some peripheral nerve blocks) was “improves”. Moreover, the side-effects result in the data set with peripheral nerve blocks (doses up to 150 µg) is “limited”. Further, the “patient-reported result with clonidine over the local anesthetic alone” value with patient having PTSD is given as “significantly more effective result”.

For the molecule `CCCCN1CCCCC1C(=O)Nc1c(C)cccc1C` (centres unmarked) [bupivacaine], the values for the solubility entry in data set [1] (95 percent ethanol), in data set [1] (chloroform or acetone) and in data set [1] (water) were “freely soluble”, “slightly soluble” and “soluble”, respectively.
